In patent US20120108501A1, “Protease Inhibitors” (priority 2009, published 2012):

Experiments:
[1] = Pharmacokinetics of released PEGylated protease inhibitor following P.O. administration of prodrugs in rats; format: in vivo, male Sprague-Dawley rats; set-up: AUCall Mean: concentration or dose not given beside the values; conditions: rats (n = 4-5)
Method in brief: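 Prodrugs given orally to male Sprague-Dawley rats, with serial blood via jugular catheter into K2EDTA. Plasma levels of test article or released PEGylated inhibitor measured by LC-MS/MS. PK parameters from noncompartmental analysis.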

[2] = Pharmacokinetics of PEGylated protease inhibitor prodrugs in rats; format: in vivo, male Sprague-Dawley rats; set-up: AUCall / AUC: concentration or dose not given beside the values; conditions: prodrug in plasma; for AUCall / Cmax: mean ± SD
Method in brief: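 Male Sprague-Dawley rats dosed; serial blood drawn via jugular vein catheters into K2EDTA and processed to plasma. Test article or released PEGylated molecule quantified by LC-MS/MS; Cmax, AUCall, T½ and MRTlast estimated noncompartmentally.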

[3] = mPEG6-atazanavir in plasma after PO administration of mPEG6-ATV or of the listed prodrug
[4] = mPEG3-atazanavir in plasma after PO administration of mPEG3-ATV or of the listed prodrug
[5] = mPEG5-atazanavir in plasma after PO administration of mPEG5-ATV or of the listed prodrug

Compound	AUCall Mean [1, 3] [ng·h/mL]	Cmax Mean [1, 3] [ng/mL]	MRT last Mean [1, 3] [h]	Tmax Median [1, 3] [h]	MRTlast [2] [h]	t½(z) [2] [h]	AUCall [2] [ng·h/mL]	Cmax [2] [ng/mL]	AUCall Mean [1, 4] [ng·h/mL]	Cmax Mean [1, 4] [ng/mL]	MRT last Mean [1, 4] [h]	Tmax* Median [1, 4] [h]	Cmin(24 hr) [2] [ng/mL]	AUCall Mean [1, 5] [ng·h/mL]	Cmax Mean [1, 5] [ng/mL]	MRT last Mean [1, 5] [h]	Tmax Median [1, 5] [h]
COCCOCCOCCOCCOCCOCCOC(=O)NC(C(=O)NC(Cc1ccccc1)C(CN(Cc1ccc(-c2ccccn2)cc1)NC(=O)C(NC(=O)OC)C(C)(C)C)OC(=O)C(N)CC(C)C)C(C)(C)C.Cl [mPEG6-Atazanavir-L-Leucine]	148	9.49	10.2	0.500	1.72 ± 0.237	2.02 ± 1.07	107 ± 62.4	55.5 ± 41.6									
COCCOCCOCCOC(=O)NC(C(=O)NC(Cc1ccccc1)C(CN(Cc1ccc(-c2ccccn2)cc1)NC(=O)C(NC(=O)OC)C(C)(C)C)OC(=O)CCCC(=O)OC1C(O)C(O)OC1C(O)CO)C(C)(C)C (stereo not shown)					1.86 ± 1.49	3.24 ± 3.26	221 ± 57.1	167 ± 89.6	84.4	3.62	22.5	0.250	0.177 ± 0.353				
COCCOCCOCCOCCOCCOC(=O)NC(C(=O)NC(Cc1ccccc1)C(CN(Cc1ccc(-c2ccccn2)cc1)NC(=O)C(NC(=O)OC)C(C)(C)C)OC(=O)COCCOC(=O)C(N)CC(C)C)C(C)(C)C.Cl (stereo not shown) [mPEG5-Atazanavir-CME-Leucine HCl, mPEG5-Atazanavir-CME-Leucine]					0.250 ± 0.000		0.119 ± 0.0826	0.45 ± 0.330						65.6	2.88	16.5	9.00
CCOC(C)OC(CN(Cc1ccc(-c2ccccn2)cc1)NC(=O)C(NC(=O)OC)C(C)(C)C)C(Cc1ccccc1)NC(=O)C(NC(=O)OCCOCCOCCOCCOCCOCCOC)C(C)(C)C (mixture of isomers) [1-ethoxyethoxy-mPEG6-Atazanivir, ethoxy ethoxy mPEG6-atazanavir]	137	28.8	4.33	1.50	2.17 ± 0.340	2.45 ± 0.630	2200 ± 2000	630 ± 550					0.354 ± 0.410				
COCCOCCOCCOCCOCCOC(=O)N[C@H](C(=O)N[C@@H](Cc1ccccc1)[C@H](CN(Cc1ccc(-c2ccccn2)cc1)NC(=O)[C@@H](NC(=O)OC)C(C)(C)C)OC(=O)[C@H](Cc1ccccc1)NC(=O)[C@@H](N)Cc1ccccc1)C(C)(C)C.Cl [Phe-Phe-mPEG5-Atazanavir HCl, Phe-Phe-mPEG5-atazanavir hydrochloride]					1.49 ± 0.412	2.01	31.8 ± 13.7	17.9 ± 9.09						94.3	12.9	9.22	0.750
Acetate Ester-mPEG5-Atazanavir [Acetate-OCHMe—OCO2-mPEG5-Atazanavir]					6.21 ± 3.38	4.82 ± 3.10	616 ± 156	115 ± 29.0						616	115	6.21	0.750
